Molecular target: active HPK1 (SignalChem M23-11G) (Homo sapiens (Human), UniProt Q92918)
Assay: HPK1 Kinase Binding Assay
Settings: LanthaScreen tracer 222 / Eu-Anti GST antibody, one hour incubation at 25° C.
Procedure: A stock solution of 1 mM test compound was prepared in DMSO. The compound plate was prepared by 3-fold and 11-point serial dilutions. 0.1 μL of the compound in DMSO was transferred from the compound plate to the white 384 well polystyrene plates. The assay buffer contained 50 mM HEPES, pH 7.5, 0.01% Tween-20, 5 mM MgCl2, 0.01% BSA, and 5 mM DTT. 5 μL of 4 nM active HPK1 (SignalChem M23-11G) prepared in the buffer was added to the plate. The enzyme concentration given was based on the given stock concentration reported by the vender. 5 μl of 18 nM tracer 222 (ThermoFisher PV6121) and 4 nM LanthaScreen Eu-Anti GST antibody (ThermoFisher PV5595) were added. After one hour incubation at 25° C., the plates were read on a PHERAstar FS plate reader (BMG Labtech). Ki values were determined.

Chain of active HPK1 (SignalChem M23-11G) (Q92918 1-346 limits assumed): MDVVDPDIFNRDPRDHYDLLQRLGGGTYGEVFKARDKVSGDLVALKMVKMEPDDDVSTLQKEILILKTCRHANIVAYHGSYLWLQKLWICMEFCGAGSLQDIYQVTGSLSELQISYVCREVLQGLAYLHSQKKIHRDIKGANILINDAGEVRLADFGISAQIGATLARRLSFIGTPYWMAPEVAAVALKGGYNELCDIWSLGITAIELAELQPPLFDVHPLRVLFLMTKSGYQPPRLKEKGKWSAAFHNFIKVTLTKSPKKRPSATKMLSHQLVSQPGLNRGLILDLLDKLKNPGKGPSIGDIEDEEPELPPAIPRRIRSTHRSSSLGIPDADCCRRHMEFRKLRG

| Ki [nM] | SMILES |
| --- | --- |
| ≤ 100 | COc1cccc(F)c1-c1nccc(C(=O)Nc2ccc3c(nc(-c4ncccc4F)n3C)c2N2C[C@H](N)C[C@H]2CO)n1 [Example 1, N-(4-((2S,4R)-4-Amino-2-(hydroxymethyl)pyrrolidin-1-yl)-2-(3-fluoropyridin-2-yl)-1-methyl-1H-benzo[d]imidazol-5-yl)-2-(2-fluoro-6-methoxyphenyl)pyrimidine-4-carboxamide] |
| ≤ 100 | Cn1c(-c2ncccc2F)nc2c(N3C[C@H](N)C[C@H]3CO)c(NC(=O)c3ccnc(-c4c(F)cccc4F)n3)ccc21 [Example 2, N-(4-((2S,4R)-4-Amino-2-(hydroxymethyl)pyrrolidin-1-yl)-2-(3-fluoropyridin-2-yl)-1-methyl-1H-benzo[d]imidazol-5-yl)-2-(2,6-difluorophenyl)pyrimidine-4-carboxamide] |
| ≤ 100 | COc1cccnc1-c1nc2c(N3C[C@H](N)C[C@H]3CO)c(NC(=O)c3ccnc(-c4c(F)cccc4F)n3)ccc2n1C [Example 3, N-(4-((2S,4R)-4-Amino-2-(hydroxymethyl)pyrrolidin-1-yl)-2-(3-methoxypyridin-2-yl)-1-methyl-1H-benzo[d]imidazol-5-yl)-2-(2,6-difluorophenyl)pyrimidine-4-carboxamide] |
| ≤ 100 | Cn1c(-c2ccccc2C#N)nc2c(N3C[C@H](N)C[C@H]3CO)c(NC(=O)c3ccnc(-c4c(F)cccc4F)n3)ccc21 [Example 4, N-(4-((2S,4R)-4-Amino-2-(hydroxymethyl)pyrrolidin-1-yl)-2-(2-cyanophenyl)-1-methyl-1H-benzo[d]imidazol-5-yl)-2-(2,6-difluorophenyl)pyrimidine-4-carboxamide] |
| ≤ 100 | N#Cc1ccccc1-c1nc2c(N3C[C@H](N)C[C@H]3CO)c(NC(=O)c3ccnc(-c4c(F)cccc4F)n3)ccc2n1C1CC1 [Example 5, N-(4-((2S,4R)-4-amino-2-(hydroxymethyl)pyrrolidin-1-yl)-2-(2-cyanophenyl)-1-cyclopropyl-1H-benzo[d]imidazol-5-yl)-2-(2,6-difluorophenyl)pyrimidine-4-carboxamide] |
| ≤ 100 | CN(c1c(NC(=O)c2ccnc(-c3c(F)cccc3F)n2)ccc2c1nc(-c1c(F)cncc1F)n2C)[C@@H]1CCCNC1 [Example 6, (R)-2-(2,6-Difluorophenyl)-N-(2-(3,5-difluoropyridin-4-yl)-1-methyl-4-(methyl(piperidin-3-yl)amino)-1H-benzo[d]imidazol-5-yl)pyrimidine-4-carboxamide] |
| ≤ 100 | Cn1c(-c2ccncc2F)nc2c(N3C[C@H](N)C[C@H]3CO)c(NC(=O)c3ccnc(-c4c(F)cccc4F)n3)ccc21 [Example 7, N-(4-((2S,4R)-4-Amino-2-(hydroxymethyl)pyrrolidin-1-yl)-2-(3-fluoropyridin-4-yl)-1-methyl-1H-benzo[d]imidazol-5-yl)-2-(2,6-difluorophenyl)pyrimidine-4-carboxamide] |
| ≤ 100 | COc1cccc(F)c1-c1nccc(C(=O)Nc2ccc3c(nc(-c4ccncc4F)n3C)c2N2CCOC[C@@H]2CN)n1 [Example 8, (S)—N-(4-(3-(Aminomethyl)morpholino)-2-(3-fluoropyridin-4-yl)-1-methyl-1H-benzo[d]imidazol-5-yl)-2-(2-fluoro-6-methoxyphenyl)pyrimidine-4-carboxamide] |
| ≤ 100 | Cn1c(-c2ccncc2F)nc2c(N3CCNC[C@@H]3CO)c(NC(=O)c3ccnc(-c4c(F)cccc4F)n3)ccc21 [Example 9, (R)-2-(2,6-Difluorophenyl)-N-(2-(3-fluoropyridin-4-yl)-4-(2-(hydroxymethyl)piperazin-1-yl)-1-methyl-1H-benzo[d]imidazol-5-yl)pyrimidine-4-carboxamide] |
| ≤ 100 | COc1cccc(F)c1-c1nccc(C(=O)Nc2ccc3c(nc(-c4ccncc4F)n3C)c2N2C[C@@H]3C[C@H]2CN3)n1 [Example 10, N-(4-((1S,4S)-2,5-Diazabicyclo[2.2.1]heptan-2-yl)-2-(3-fluoropyridin-4-yl)-1-methyl-1H-benzo[d]imidazol-5-yl)-2-(2-fluoro-6-methoxyphenyl)pyrimidine-4-carboxamide] |
| ≤ 100 | COc1cccc(F)c1-c1nccc(C(=O)Nc2ccc3c(nc(-c4ccncc4F)n3C)c2N2C[C@@H]3C[C@H]2CO3)n1 [Example 11, N-(4-((1S,4S)-2-Oxa-5-azabicyclo[2.2.1]heptan-5-yl)-2-(3-fluoropyridin-4-yl)-1-methyl-1H-benzo[d]imidazol-5-yl)-2-(2-fluoro-6-methoxyphenyl)pyrimidine-4-carboxamide] |
| ≤ 100 | COc1cccc(F)c1-c1nccc(C(=O)Nc2ccc3c(nc(C)n3C)c2N2CCC[C@H]2CN)n1 [Example 12, (S)—N-(4-(2-(Aminomethyl)pyrrolidin-1-yl)-1,2-dimethyl-1H-benzo[d]imidazol-5-yl)-2-(2-fluoro-6-methoxyphenyl)pyrimidine-4-carboxamide] |
| ≤ 100 | COc1cccc(F)c1-c1nccc(C(=O)Nc2ccc3c(nc(C)n3C)c2N2CCC[C@@H]2CN)n1 [Example 13, (R)—N-(4-(2-(Aminomethyl)pyrrolidin-1-yl)-1,2-dimethyl-1H-benzo[d]imidazol-5-yl)-2-(2-fluoro-6-methoxyphenyl)pyrimidine-4-carboxamide] |
| ≤ 100 | COc1cccc(F)c1-c1nccc(C(=O)Nc2ccc3c(nc(C)n3C)c2N2CCC[C@@H]2CO)n1 [Example 14, (R)-2-(2-Fluoro-6-methoxyphenyl)-N-(4-(2-(hydroxymethyl)pyrrolidin-1-yl)-1,2-dimethyl-1H-benzo[d]imidazol-5-yl)pyrimidine-4-carboxamide] |
| ≤ 100 | COc1cccc(F)c1-c1nccc(C(=O)Nc2ccc3c(nc(C)n3C)c2N2C[C@H](N)C[C@H]2CO)n1 [Example 15, N-(4-((2S,4R)-4-Amino-2-(hydroxymethyl)pyrrolidin-1-yl)-1,2-dimethyl-1H-benzo[d]imidazol-5-yl)-2-(2-fluoro-6-methoxyphenyl)pyrimidine-4-carboxamide] |
| ≤ 100 | COc1cccc(F)c1-c1nccc(C(=O)Nc2ccc3c(nc(C)n3C)c2N2C[C@H]3C[C@@H]2CN3)n1 [Example 16, N-(4-((1R,4R)-2,5-Diazabicyclo[2.2.1]heptan-2-yl)-1,2-dimethyl-1H-benzo[d]imidazol-5-yl)-2-(2-fluoro-6-methoxyphenyl)pyrimidine-4-carboxamide] |
| ≤ 100 | COc1cccc(F)c1-c1nccc(C(=O)Nc2ccc3c(nc(C(C)C)n3C)c2N2C[C@@H]3C[C@H]2CN3)n1 [Example 17, N-(4-((1S,4S)-2,5-Diazabicyclo[2.2.1]heptan-2-yl)-2-isopropyl-1-methyl-1H-benzo[d]imidazol-5-yl)-2-(2-fluoro-6-methoxyphenyl)pyrimidine-4-carboxamide] |
| ≤ 100 | COc1cccc(F)c1-c1nccc(C(=O)Nc2ccc3c(nc(-c4ccncc4F)n3C)c2N2CCC[C@H]2CN)n1 [Example 18, (S)—N-(4-(2-(Aminomethyl)pyrrolidin-1-yl)-2-(3-fluoropyridin-4-yl)-1-methyl-1H-benzo[d]imidazol-5-yl)-2-(2-fluoro-6-methoxyphenyl)pyrimidine-4-carboxamide] |
| ≤ 100 | COc1cccc(F)c1-c1nccc(C(=O)Nc2ccc3c(nc(-c4ccnn4C)n3C)c2N2CCC[C@H]2CN)n1 [Example 19, (S)—N-(4-(2-(Aminomethyl)pyrrolidin-1-yl)-1-methyl-2-(1-methyl-1H-pyrazol-5-yl)-1H-benzo[d]imidazol-5-yl)-2-(2-fluoro-6-methoxyphenyl)pyrimidine-4-carboxamide] |
